Reference: ChEMBL document CHEMBL4765464, “Discovery of BMS-986144, a Third-Generation, Pan-Genotype NS3/4A Protease Inhibitor for the Treatment of Hepatitis C Virus Infection” (J Med Chem, 2020)

Experiments:
[1] = Inhibition of recombinant full length NS3/4A protease in Hepatitis C virus subtype 3a infected in human HuH7 cells using Ac-Asp-Glu-Asp (EDANS)-Glu-Glu-Abu-(COO) Ala-Ser-Lys (DABCYL)-NH2 as substrate by FRET assay; conditions: Huh-7
[2] = Inhibition of recombinant full length NS3/4A protease in Hepatitis C virus subtype 1a replicon infected in human HuH7 cells preincubated for 3 days followed by substrate addition and measured after 2 hrs by renilla luciferase reporter gene assay; assay type: cell-based; conditions: Huh-7
[3] = Inhibition of recombinant full length NS3/4A protease in Hepatitis C virus subtype 1b replicon infected in human HuH7 cells preincubated for 3 days followed by substrate addition and measured after 2 hrs by renilla luciferase reporter gene assay; assay type: cell-based; conditions: Huh-7
[4] = Inhibition of recombinant full length NS3/4A protease in Hepatitis C virus subtype 2a replicon infected in human HuH7 cells preincubated for 3 days followed by substrate addition and measured after 2 hrs by renilla luciferase reporter gene assay; assay type: cell-based; conditions: Huh-7
[5] = Inhibition of recombinant full length NS3/4A protease in Hepatitis C virus subtype 3a replicon infected in human HuH7 cells preincubated for 3 days followed by substrate addition and measured after 2 hrs by renilla luciferase reporter gene assay; assay type: cell-based; conditions: Huh-7
[6] = Inhibition of recombinant full length NS3/4A R155K mutant protease in Hepatitis C virus subtype 1a replicon infected in human HuH7 cells preincubated for 3 days followed by substrate addition and measured after 2 hrs by renilla luciferase reporter gene assay; assay type: cell-based; conditions: Huh-7
[7] = Inhibition of recombinant full length NS3/4A D168V mutant protease in Hepatitis C virus subtype 1b replicon infected in human HuH7 cells preincubated for 3 days followed by substrate addition and measured after 2 hrs by renilla luciferase reporter gene assay; assay type: cell-based; conditions: Huh-7
[8] = Metabolic stability in human liver microsomes assessed as half-life incubated for 5 to 45 mins in presence of NADPH by LC-MS analysis; assay type: ADME, Microsome; conditions: time 5-45 min
[9] = Clearance in rat at 1 mg/kg, iv; assay type: ADME, organism-based; conditions: in vivo
[10] = Half life in rat at 1 mg/kg, iv; assay type: ADME, organism-based; conditions: in vivo
[11] = AUC (0 to 24 hrs) in rat at 5 mg/kg, po; assay type: ADME, organism-based; parameters: time < 24 hr, route oral, dose 5 mg/kg; conditions: in vivo
[12] = Cmax in rat at 5 mg/kg, po; assay type: ADME, organism-based; parameters: route oral, dose 5 mg/kg; conditions: in vivo
[13] = Drug concentration in rat plasma at 5 mg/kg, po measured upto 24 hrs; assay type: ADME, organism-based; conditions: read-out: Ct
[14] = Drug concentration in rat liver at 5 mg/kg, po measured upto 24 hrs; assay type: ADME, organism-based; conditions: read-out: Ct
[15] = Ratio of drug concentration in liver to plasma in rat at 5 mg/kg, po measured upto 24 hrs; assay type: ADME, organism-based; conditions: liver and plasma
[16] = Oral bioavailability in rat at 5 mg/kg; assay type: ADME, organism-based; conditions: in vivo
Cytochrome P450 3A4 [17] = molecular target: T1, Cytochrome P450 3A4 (Homo sapiens, UniProt P08684); experiment: Inhibition of human CYP3A4 in human pooled liver microsomes at 0.002 to 40 uM in presence of midazolam as substrate preincubated in presence of NADPH followed by addition of substrate by LC-MS/MS analysis; assay type: ADME; conditions: TDE = time-dependent effect, dose 0.002-40 µM, time <=30 min
T1 sequence (P08684 whole entry): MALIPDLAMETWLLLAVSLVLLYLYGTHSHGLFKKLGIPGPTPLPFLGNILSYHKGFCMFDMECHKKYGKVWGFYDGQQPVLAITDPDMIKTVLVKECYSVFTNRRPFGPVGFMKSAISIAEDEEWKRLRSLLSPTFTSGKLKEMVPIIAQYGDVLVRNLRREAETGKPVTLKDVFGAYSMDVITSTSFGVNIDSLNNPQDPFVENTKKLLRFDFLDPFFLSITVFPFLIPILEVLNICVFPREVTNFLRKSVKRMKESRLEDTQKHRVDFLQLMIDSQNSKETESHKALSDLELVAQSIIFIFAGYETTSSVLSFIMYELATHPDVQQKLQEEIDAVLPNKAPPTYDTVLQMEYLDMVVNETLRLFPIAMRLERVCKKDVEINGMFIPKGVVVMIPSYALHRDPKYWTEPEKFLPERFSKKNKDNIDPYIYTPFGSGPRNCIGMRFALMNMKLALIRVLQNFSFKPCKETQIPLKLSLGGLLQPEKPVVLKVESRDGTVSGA

Cytochrome P450 3A4 [18] = molecular target: T1, Cytochrome P450 3A4; experiment: Inhibition of human CYP3A4 in human pooled liver microsomes at 0.002 to 40 uM in presence of testosterone as substrate preincubated in presence of NADPH followed by addition of substrate by LC-MS/MS analysis; assay type: ADME; conditions: TDE = time-dependent effect, dose 0.002-40 µM, time <=30 min
[19] = Half-life in dog at 3 mg/kg, po or 1 mg/kg, iv; assay type: ADME, organism-based, Canis lupus familiaris; conditions: in vivo
[20] = Clearance in rat at 5 mg/kg, po or 1 mg/kg, iv; assay type: ADME, organism-based; conditions: in vivo
[21] = AUC in rat at 5 mg/kg, po or 1 mg/kg, iv; assay type: ADME, organism-based; parameters: dose 5 mg/kg; conditions: in vivo
[22] = Clearance in dog at 3 mg/kg, po or 1 mg/kg, iv; assay type: ADME, organism-based, Canis lupus familiaris; conditions: in vivo
[23] = AUC in dog at 3 mg/kg, po or 1 mg/kg, iv; assay type: ADME, organism-based, Canis lupus familiaris; parameters: dose 3 mg/kg; conditions: in vivo
[24] = Drug concentration in dog plasma at 3 mg/kg, po measured upto 24 hrs; assay type: ADME, organism-based, Canis lupus familiaris; conditions: read-out: Ct
[25] = Half-life in cynomolgus monkey at 3 mg/kg, po or 1 mg/kg, iv; assay type: ADME, organism-based, Macaca fascicularis; conditions: in vivo
[26] = AUC in cynomolgus monkey at 3 mg/kg, po or 1 mg/kg, iv; assay type: ADME, organism-based, Macaca fascicularis; parameters: dose 3 mg/kg; conditions: in vivo

Row | Compound | IC50 [1] [nM] | EC50 [2] [nM] | EC50 [3] [nM] | EC50 [4] [nM] | EC50 [5] [nM] | EC50 [6] [nM] | EC50 [7] [nM] | half-life [8] [min] | further results
1 | COc1cnc(O[C@@H]2C[C@H]3C(=O)N[C@]4(C(=O)NS(=O)(=O)C5CC5)C[C@H]4/C=C\CCCC[C@@H](C)[C@H](NC(=O)OC(C)(C)C(F)(F)F)C(=O)N3C2)c2cc(Cl)ccc12 | 12.8 | 0.6 | 0.48 | 1.7 | 42.5 | 17.9 | 6.8 | 30.3 | 
2 | COc1cnc(O[C@@H]2C[C@H]3C(=O)N[C@]4(C(=O)NS(=O)(=O)C5CC5)C[C@H]4/C=C\CCCC[C@@H](C)[C@H](NC(=O)OC(C)(C)C(F)(F)F)C(=O)N3C2)c2ccccc12 | 2.2 | 0.8 | 0.3 | 1.5 | 37.3 | 11.5 | 21 | 18.6 | 
3 | COc1cnc(O[C@@H]2C[C@H]3C(=O)N[C@]4(C(=O)NS(=O)(=O)C5CC5)C[C@H]4/C=C\CCCCC[C@H](NC(=O)OC(C)(C)C)C(=O)N3C2)c2cc(Cl)ccc12 | 51 |  |  |  |  |  |  | 6.4 | 
4 | CC[C@@H]1C[C@H](C)CC/C=C\[C@@H]2C[C@@]2(C(=O)NS(=O)(=O)C2(C)CC2)NC(=O)[C@@H]2C[C@@H](Oc3ncc(OC)c4ccccc34)CN2C(=O)[C@H]1NC(=O)OC(C)(C)C(F)(F)F | 1.9 | 0.8 | 0.4 | 1.1 | 7.4 | 5.4 | 5.4 | 23 | clearance [9]: 1.7 mL/min/kg; half-life [10]: 438 min; AUC(0-t) at 24 h [11]: 22.5 µM·h; Cmax [12]: 3030 nM; concentration at 24 h [13]: 229 nM; concentration at 24 h [14]: 2670 nM; Kp at 24 h [15]: 12; bioavailability [16]: 42%
5 | COc1cnc(O[C@@H]2C[C@H]3C(=O)N[C@]4(C(=O)NS(=O)(=O)C5CC5)C[C@H]4/C=C\CCCC[C@@H](C)[C@H](NC(=O)OC(C)(C)C)C(=O)N3C2)c2cc(Cl)ccc12 | 11 | 0.9 | 0.25 | 1.1 | 75.5 | 10.7 | 1.9 | 11.5 | 
6 | COc1cnc(O[C@@H]2C[C@H]3C(=O)N[C@]4(C(=O)NS(=O)(=O)C5(C)CC5)C[C@H]4/C=C\CC[C@@H](C)C[C@@H](C)[C@H](NC(=O)OC(C)(C)C(F)(F)F)C(=O)N3C2)c2ccccc12 | 0.9 | 0.8 | 0.3 | 0.6 | 5 | 1.6 | 4.7 | 15 | clearance [9]: 1.7 mL/min/kg; half-life [10]: 342 min; AUC(0-t) at 24 h [11]: 34.2 µM·h; Cmax [12]: 5290 nM; concentration at 24 h [13]: 226 nM; concentration at 24 h [14]: 5740 nM; Kp at 24 h [15]: 25; bioavailability [16]: 60%
7 | C[C@@H]1CC/C=C\[C@@H]2C[C@@]2(C(=O)NS(=O)(=O)C2CC2)NC(=O)[C@@H]2C[C@@H](Oc3nccc4ccc(F)cc34)CN2C(=O)[C@@H](NC(=O)OC(C)(C)C(F)(F)F)[C@H](C)C1 | 20 | 1 | 0.3 | 3 | 196 | 21 |  | 10 | 
8 | COc1cnc(O[C@@H]2C[C@H]3C(=O)N[C@]4(C(=O)NS(=O)(=O)C5CC5)C[C@H]4/C=C\CC[C@H](C)C[C@@H](C)[C@H](NC(=O)OC(C)(C)C)C(=O)N3C2)c2cc(Cl)ccc12 | 50 | 5 | 4 | 19 |  | 700 | 25 |  | 
9 | CC[C@@H]1CCCC/C=C\[C@@H]2C[C@@]2(C(=O)NS(=O)(=O)C2CC2)NC(=O)[C@@H]2C[C@@H](Oc3ncc(OC)c4ccc(Cl)cc34)CN2C(=O)[C@H]1NC(=O)OC(C)(C)C(F)(F)F | 29.5 | 0.84 | 0.47 | 2.1 |  | 45.2 | 4.8 | 48 | 
10 | CC[C@@H]1C[C@H](C)CC/C=C\[C@@H]2C[C@@]2(C(=O)NS(=O)(=O)C2CC2)NC(=O)[C@@H]2C[C@@H](Oc3ncc(OC)c4ccccc34)CN2C(=O)[C@H]1NC(=O)OC(C)(C)C(F)(F)F | 1.2 | 1 | 0.5 | 1.5 | 8 | 8.3 | 17 | 37.7 | clearance [9]: 5.73 mL/min/kg; half-life [10]: 288 min; AUC(0-t) at 24 h [11]: 18.8 µM·h; Cmax [12]: 2950 nM; concentration at 24 h [13]: 72 nM; concentration at 24 h [14]: 2360 nM; Kp at 24 h [15]: 33; bioavailability [16]: 61%
11 | [2H]C([2H])([2H])Oc1cnc(O[C@@H]2C[C@H]3C(=O)N[C@]4(C(=O)NS(=O)(=O)C5(C)CC5)C[C@H]4/C=C\CC[C@@H](C)C[C@@H](C)[C@H](NC(=O)OC(C)(C)C(F)(F)F)C(=O)N3C2)c2ccccc12 |  | 0.6 | 0.4 | 0.5 | 4 | 1.6 | 2.3 | 18 | 
12 | CC[C@@H]1C[C@H](C)CC/C=C\[C@@H]2C[C@@]2(C(=O)NS(=O)(=O)C2(C)CC2)NC(=O)[C@@H]2C[C@@H](Oc3nccc4cc(O)c(F)cc34)CN2C(=O)[C@H]1NC(=O)OC(C)(C)C(F)(F)F |  |  | 1.3 | 1.9 | 48 | 3.9 | 9.5 | 37 | inhibition (INH) (Cytochrome P450 3A4 [17]): Tde; inhibition (INH) (Cytochrome P450 3A4 [18]): Tde
13 | CC[C@@H]1C[C@H](C)CC/C=C\[C@@H]2C[C@@]2(C(=O)NS(=O)(=O)C2CC2)NC(=O)[C@@H]2C[C@@H](Oc3ncc(OC)c4ccccc34)CN2C(=O)[C@H]1NC(=O)OC(C)(C)C | 0.16 | 2.2 | 1.5 | 5.1 |  | 12.6 | 18 | 8.6 | 
14 | COc1cnc(O[C@@H]2C[C@H]3C(=O)N[C@]4(C(=O)NS(=O)(=O)C5CC5)C[C@H]4/C=C\CC[C@@H](C)C[C@@H](C)[C@H](NC(=O)OC(C)(C)C)C(=O)N3C2)c2cc(Cl)ccc12 | 4.4 | 1.2 | 0.6 | 1.2 |  | 4 | 1.3 | 6.7 | 
15 | C=C[C@@H]1C[C@]1(NC(=O)[C@@H]1C[C@@H](Oc2ncc(OC)c3ccc(Cl)cc23)CN1C(=O)[C@@H](NC(=O)OC(C)(C)C)C(C)(C)C)C(=O)NS(=O)(=O)C1CC1 | 395 | 4 | 1.2 | 217 | 407 | 150 | 187 |  | concentration at 24 h [13]: 33 nM; concentration at 24 h [14]: 15000 nM; bioavailability [16]: 14%; half-life [19]: 60 min; clearance [20]: 38 mL/min/kg; AUC [21]: 1.2 µM·h; clearance [22]: 18.7 mL/min/kg; AUC [23]: 2.2 µM·h; concentration at 24 h [24]: < 10 nM; half-life [25]: 78 min; AUC [26]: 0.65 µM·h
